Values quoted from earlier work as cited in patent US20220240500A1, “Cryopreservation compositions and methods involving nanowarming” (REGENTS OF THE UNIVERSITY OF MINNESOTA, priority 2016, published 2022).

Test system: zebrafish embryos
Details: 2.3 M injected; previous studies

In the case of CC(O)CO (stereo not shown) [Propylene Glycol], the “survival from injection into the zebrafish embryo” value is listed as “high survival”.
